The target of assay [1] is T1, glucocorticoid receptor (GR) (Homo sapiens, UniProt P04150).
T1 construct: made in house; host or cells: Sf9 cells infected with recombinant baculovirus (cytosol preparation)
T1 sequence (P04150 1-777): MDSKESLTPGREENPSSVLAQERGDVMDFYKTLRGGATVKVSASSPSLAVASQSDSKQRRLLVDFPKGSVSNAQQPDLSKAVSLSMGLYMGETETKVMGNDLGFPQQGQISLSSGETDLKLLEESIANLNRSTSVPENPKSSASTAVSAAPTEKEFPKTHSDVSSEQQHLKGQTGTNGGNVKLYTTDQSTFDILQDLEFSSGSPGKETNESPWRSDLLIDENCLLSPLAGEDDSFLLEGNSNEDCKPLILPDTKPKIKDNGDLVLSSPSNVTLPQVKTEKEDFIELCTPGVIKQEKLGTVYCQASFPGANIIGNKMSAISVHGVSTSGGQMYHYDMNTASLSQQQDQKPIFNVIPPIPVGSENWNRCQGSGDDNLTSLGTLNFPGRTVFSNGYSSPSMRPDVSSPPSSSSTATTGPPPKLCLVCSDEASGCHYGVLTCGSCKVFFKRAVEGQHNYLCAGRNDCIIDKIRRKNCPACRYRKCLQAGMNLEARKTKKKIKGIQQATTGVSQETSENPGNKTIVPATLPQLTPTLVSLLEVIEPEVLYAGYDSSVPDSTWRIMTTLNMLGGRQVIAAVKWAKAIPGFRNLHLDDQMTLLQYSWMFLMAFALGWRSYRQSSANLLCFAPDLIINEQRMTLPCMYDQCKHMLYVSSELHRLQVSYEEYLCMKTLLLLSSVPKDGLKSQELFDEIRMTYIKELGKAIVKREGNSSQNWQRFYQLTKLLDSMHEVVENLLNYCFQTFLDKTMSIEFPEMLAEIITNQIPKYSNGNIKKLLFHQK
Kind of assay: Glucocorticoid receptor binding with recombinantly prepared receptor, [3H]-dexamethasone as reference. The note with it: cytosol preparations of Sf9 cells infected with recombinant baculoviruses coding for GR. The text has this: (§1) The binding of the substances to the glucocorticoid receptor (GR) and further steroid hormone receptors (mineral corticoid receptor (MR), progesterone receptor (PR) and androgen receptor (AR)) is examined with the aid of recombinantly prepared receptors. Cytosol preparations of Sf9 cells which had been infected with recombinant baculoviruses which code for the GR are employed for the binding studies. Compared with the reference substance [^3H]-dexamethasdne, the substances show a high affinity for the GR. Thus, an IC50(GR)=20 nM and IC50(PR) >1 μM was measured for the compound of example 1 and an IC50(GR)=30 nM and IC50(PR) >1 μM was measured for the compound of example 2.

The target in assay [2] is T2, progesterone receptor (PR) (Homo sapiens, UniProt P06401).
T2 construct: made in house
T2 sequence (P06401 1-933): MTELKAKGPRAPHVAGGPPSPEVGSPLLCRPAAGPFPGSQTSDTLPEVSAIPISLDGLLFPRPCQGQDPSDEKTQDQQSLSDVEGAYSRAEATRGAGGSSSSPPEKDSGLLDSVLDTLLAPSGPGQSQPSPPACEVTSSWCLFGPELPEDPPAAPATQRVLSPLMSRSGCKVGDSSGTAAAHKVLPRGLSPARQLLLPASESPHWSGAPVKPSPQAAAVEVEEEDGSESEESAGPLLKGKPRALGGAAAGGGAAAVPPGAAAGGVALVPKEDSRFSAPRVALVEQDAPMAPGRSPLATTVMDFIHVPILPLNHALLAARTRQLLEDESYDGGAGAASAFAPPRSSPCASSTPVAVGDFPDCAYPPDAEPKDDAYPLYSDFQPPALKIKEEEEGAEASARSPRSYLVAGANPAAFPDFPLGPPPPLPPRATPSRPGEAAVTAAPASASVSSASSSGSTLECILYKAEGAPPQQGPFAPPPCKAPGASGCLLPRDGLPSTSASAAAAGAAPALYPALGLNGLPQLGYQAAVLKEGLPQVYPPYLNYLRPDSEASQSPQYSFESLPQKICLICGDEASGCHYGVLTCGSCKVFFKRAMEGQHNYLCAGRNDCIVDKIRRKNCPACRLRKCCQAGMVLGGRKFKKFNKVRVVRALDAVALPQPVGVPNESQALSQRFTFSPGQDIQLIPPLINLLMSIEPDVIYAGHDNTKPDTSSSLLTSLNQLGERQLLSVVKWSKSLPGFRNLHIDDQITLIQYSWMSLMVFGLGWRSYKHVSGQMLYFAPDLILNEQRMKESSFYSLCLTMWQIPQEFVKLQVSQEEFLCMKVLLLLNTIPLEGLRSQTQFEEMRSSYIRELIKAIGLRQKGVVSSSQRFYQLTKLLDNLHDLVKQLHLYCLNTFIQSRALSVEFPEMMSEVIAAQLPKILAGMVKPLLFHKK
Kind of assay: Progesterone receptor binding with recombinantly prepared receptor.
Excerpt: as §1

From patent US20070129358A1, “Sbstituted chroman derivatives, processes for their preparation and their use as antiinflammatory agents” (priority 2005, published 2007) come the findings set out here.

Molecules are shown by their SMILES.

As usually defined, the IC50 is the point on the concentration scale where inhibition reaches its midpoint. `CC1(CC(O)(CNc2cccc3[nH]c(=O)ccc23)C(F)(F)F)CCOc2ccccc21` (single isomer, unassigned) [Example 2, 5-{[2-Hydroxy-3-(4-methylchroman-4-yl)-2-trifluoro-methylpropyl]amino}quinolin-2{1H}-one]: the IC50 was 30 nM in assay [1] and > 1000 nM in assay [2].

With `O=c1ccc2c(NCC(O)(CC3CCOc4ccccc43)C(F)(F)F)cccc2[nH]1` (stereo not shown) [Example 1], the IC50 in assay [1] is 20 nM; in assay [2] it was > 1000 nM.
